Data from patent US20050281867A1, “Nitric oxide inducing agents” (priority 2003, published 2005).

Tests used:
nitric oxide = assay: Nitric oxide production / systemic NO levels in treated patients; assay type: in vivo, human
Experimental: Moreover, it was observed that a few patients who received treatment with an agent of the instant invention began to develop resistance due to down-regulation of the insulin receptor. This effect was reversed by co-administering low dose aspirin (15 mg) with the agent. Upon co-administration, the production of nitric oxide returned to normal within 30 minutes of treatment. While the instant agents work through the insulin receptor, aspirin appeared to be insulin-independent and was nitric oxide mediated. Accordingly, one embodiment of the instant methods is the co-administration, i.e., simultaneous or sequential, of low dose aspirin (e.g., ranging from 5-100 mg) with an agent of the instant invention. […] Expression of maspin, a serine protease inhibitor (serpin) known to be a potent anticancer protein, is severely impaired in breast cancer tissue. […] Similarly, production of alpha interferon-a, a widely used anticancer cytokine noted for its antiproliferative and anticancer property, is severely impaired in both malignant breast cancer tissue and non-malignant neutrophils in breast cancer. As with maspin, increases in nitric oxide levels increased production of alpha-interferon to normal ranges. By administering an agent of the instant invention, the auto immunity that is T-cell induced is improved through the neutrophils.

wide variety of cancers = assay: Topical treatment of cancer patients, overall statements; assay type: in vivo, human
Text: A total of 8,125 patients with different kinds of cancer participated in this study. These patients were divided into two groups. Blood samples were collected from 80 patients designated as Group I. These patients included 45 males between 20-65 years old, and 35 females between 25-55 years old. These patients were newly diagnosed patients with cancer who at the time of blood donation had not taken any medicine at least for 14 days and had not yet undergone any treatment of cancer including radiation or chemotherapy but opted for surgery. None of the patients had overt diabetes mellitus, systemic hypertension or suffered coronary artery disease at presentation. None of these patients had any other diagnosed life threatening condition.
Two categories of patients were included in Group II. The first category included 6,705 patients who had previously undergone all available cancer treatments including surgery, radiation and chemotherapy. At the time of participation in the study these patients had exhausted all therapeutic options and were under the care of private physicians and family members in their home. […] At the time of the participation in the study all patients, in the Group II in the second category had stopped taking treatments for cancer, such as chemotherapy and radiation, for at least 2 months. The diagnostic procedures and condition of the patients at presentation are described in Table 1. All institutionalized patients in group II were excluded from the study to avoid ambiguity. As in the case of Group I the patients with any other life threatening conditions or severe infection were also excluded from this group.
A control group of 150 patients were selected randomly from the Group II patients. […] Since the effect of the agents of the instant invention on the neutralization of IANOS antibody in vivo in cancer patients (responders) could be noticed by immunoblot technique (end-point) in 7 days, the patients in the placebo group received the vehicle for 7 days; the neutralization of the antibody and nitric oxide synthesis were determined. […]

[1] = tested on: insulin-activated nitric oxide synthase (IANOS); assay: Assay of IANOS of human erythrocytes; assay type: biochemical
Experimental: Both biologic and non-biologic materials for were screened for their ability to activate human erythrocytes IANOS. […] The protein was purified to homogeneity from an aqueous extract (pH 7.4 buffer) by the combination of DEAE cellulose chromatography and SEPHADEX® gel filtration techniques.
Insulin-activated nitric oxide synthase (IANOS) activity of the erythrocyte suspension was carried out by determining the conversion of oxyhemoglobin to methemoglobin using standard methods. Purification of insulin activated nitric oxide synthase (from human erythrocyte membranes) was carried out by DEAE cellulose chromatography.

[2] = tested on: maspin and alpha interferon-a; assay: Maspin and alpha interferon in breast cancer tissue and neutrophils of treated subjects; assay type: in vivo, human; conditions: malignant breast cancer tissue and non-malignant neutrophils in breast cancer
Text: Expression of maspin, a serine protease inhibitor (serpin) known to be a potent anticancer protein, is severely impaired in breast cancer tissue. […] Similarly, production of alpha interferon-a, a widely used anticancer cytokine noted for its antiproliferative and anticancer property, is severely impaired in both malignant breast cancer tissue and non-malignant neutrophils in breast cancer. As with maspin, increases in nitric oxide levels increased production of alpha-interferon to normal ranges. By administering an agent of the instant invention, the auto immunity that is T-cell induced is improved through the neutrophils.

Molecule	time until production of nitric oxide returned to normal (nitric oxide; low dose aspirin (15 mg) co-administered with the agent, patients who developed resistance (insulin receptor down-regulation)) [min]	cancers in which particularly effective (wide variety of cancers; non-Hodgkin's lymphoma, brain cancer, breast cancer with mastectomy, lung cancer (non-small cell))	comparative effect of both agents (wide variety of cancers; pancreatic cancer and bone cancer)	effect against a wide variety of cancers (wide variety of cancers; topical, cancer patients, as shown in Table 1)	activation of erythrocyte IANOS [1]	alpha interferon-a [2]	maspin [2]	systemic NO levels (nitric oxide; after administration)
CC(=O)Oc1ccccc1C(=O)O [aspirin, reference compound]	≤ 30	–	–	–	–	–	–	–
insulin	–	particularly effective	equally effective	effective	potent activator	increase	increase	increase
